Reference: US8921571B2, “Pyrrolysine analogs” (The Ohio State University, priority 2009, dated 2014)
Counter-ions that a name gives are not always drawn. Like-named read-outs stand apart in the source and are kept apart here.

What was measured:
[1] = tested on: UAG stop codon readthrough of mCherry (Lys55) with PylT/PylS genes from Methanosarcina mazei; assay: modified mCherry fluorescence protein assay for stop codon readthrough (Example 2); format: cell-based, E. coli strain BL21(DE3); conditions: for mCherry production: Terrific Broth
Procedure: The site-specific incorporation efficiencies of these analogs were measured with a modified fluorescence protein assay using a fluorescent protein as a reporting gene to monitor stop codon readthrough. This approach was made compatible with large scale measurements by 1) using mCherry instead of GFP to reduce the fluorescence background introduced by growth medium, 2) growing the host cells in 24-well plates to facilitate handling of multiple samples and minimize deviation between samples, and 3) measuring the fluorescence intensity of the cell culture in the plates to save the labor of electrophoresis and western blotting.
In this study, the Lys55 codon of mCherry was site-specifically mutated to UAG and inserted into the plasmid pPylST harbouring the pyrrolysine tRNA (PylT) and synthetase (PylS) genes from Methanosarcina mazei. E. coli strain BL21(DE3) transformed with this plasmid was grown in the Terrific Broth medium supplied with 2 mM pyrrolysine analog to be examined. […] These differences are seen in FIG. 3, where the results have been normalized against analog 3. Similar results were observed when the supplied analog concentration varied from 0.5 mM to 20 mM.
As analogs 4-6 were prepared and screened as ˜1:1 mixtures of diastereomers, we carried out further readthrough experiments with isomerically pure samples of 6 prepared from commercially available (R)- and (S)-propargylglycines. The readthrough efficiencies of L-6, D-6 and the enantiomer mixture were tested at various concentrations. […] This is seen in FIG. 4. […] One explanation is that the less efficient incorporable isomer L-6 is a competitive inhibitor of D-6.
The effect of the growth medium pH on the readthrough efficiency of D-6 was investigated using the modified mCherry assay. […] When 2 mM D-6 was used as substrate, the production of full-length mCherry increased as the pH of the growth medium increased. The total amount of produced mCherry peaked at pH 8.5 and dropped a little at pH 9.0 due to a lower cell density.

[2] = tested on: UAG codon readthrough of mCherry (Lys55 codon mutated to UAG) with PylT/PylS; assay: mCherry UAG codon readthrough assay (Example 1); format: cell-based, E. coli strain BL21(DE3); conditions: for readthrough of the UAG codon: Terrific Broth medium, varying concentrations
Procedure: In order to evaluate the UAG codon readthrough efficiency for the two diastereomers, the brightly emitting red fluorescent protein, mCherry, was employed as a reporter. Briefly, the Lys55 codon of this protein was site-specifically mutated to UAG and inserted into the plasmid pPylST harbouring the pyrrolysine tRNA (PylT) and synthetase (PylS) genes. E. coli strain BL21(DE3) transformed with this plasmid was grown in the Terrific Broth medium supplied with either the (S,S)-isomer or (R,S)-isomer at varying concentrations. […] This is seen in the graph of FIG. 1, where the relative fluorescence of the (S,S)-isomer was higher at all concentrations.

[3] = tested on: recombinant protein; assay: incorporation into a recombinant protein; format: cell-based
[4] = 2 mM analog, normalized against analog 3, ~1:1 mixture of diastereomers

C#CCC(O)C(=O)NCCCC[C@H](N)C(=O)O (stereo partly drawn) [Formula 5]
mCherry production ([1]; 2 mM analog): no detectable mCherry production

C#CCC(N)C(=O)NCCCC[C@H](N)C(=O)O (stereo partly drawn) [Formula 6]
readthrough efficiency (in words) [1]: best substrate | readthrough efficiency, more efficient than analog 3 [1, 4]: 69%

C#CCCC(=O)NCCCC[C@H](N)C(=O)O [Formula 7]
mCherry production ([1]; 2 mM analog): no detectable mCherry production

N[C@H](CS)C(=O)NCCCC[C@H](N)C(=O)O [Formula (1)]
readthrough of the UAG codon [2]: enabled readthrough of the UAG codon | readthrough efficiency, comparison of the two isomers ([2]; versus (R,S)-isomer, FIG. 1): much better substrate

N[C@@H](CCCCNC(=O)[C@@H](N)CS)C(=O)O [Formula (2)]
readthrough of the UAG codon [2]: enabled readthrough of the UAG codon

C#CCC(N)C(=O)NCCCC[C@H](N)C(=O)O (stereo partly drawn) [Formula (6)]
readthrough efficiency (in words) ([1]; listed as enantiomer mixture): moderate efficiency

[N-]=[N+]=NCC(=O)NCCCC[C@H](N)C(=O)O [Formula (10), N^6-(Azidoacetyl)lysine trifluoroacetate]
readthrough efficiency, fold less efficient than analog 3 [1, 4]: 30 fold

CC1(CC(=O)NCCCC[C@H](N)C(=O)O)N=N1 [Formula (11), N^6-(2-(3-Methyl-3H-diazirin-3-yl)acetyl)lysine trifluoroacetate]
incorporation into a recombinant protein [3]: incorporated into a recombinant protein

C#CC[C@@H](N)C(=O)NCCCC[C@H](N)C(=O)O [Formula D-6]
readthrough efficiency (in words) [1]: highly efficient | readthrough efficiency, fold more efficient than L-6 ([1]; isomerically pure samples, various concentrations, FIG. 4): 35 fold
